Values joined by “and” are separate entries in the source; they are usually repeats but may differ in a detail not shown here. Equal values may be shown once.
Test system: serum levels of 58 analytes
Experiment: Serum biomarker analysis, quantitative immunoassay multi-analyte profiling (Rules-Based Medicine RodentMAP v2.9), AA#80
Assay type: in vivo, mouse
Conditions: serum; for GCP-2 (Granulocyte Chemotactic Potein-2): LDD 0.0245; for GCP-2 (Granulocyte Chemotactic Potein-2) / IL-17-(Interleukin-17) / GST-alpha (Glutathione S-Transferase alpha) / IL-1beta (Interleukin-1beta) / IL-12p70-(Interleukin-12p70) / FGF-basic (Fibroblast Growth Factor-basic) / Haptoglobin / IL-18 (Interleukin-18) / CRP (C Reactive Protein) / Factor VII / FGF-9 (Fibroblast Growth Factor-9) / GM-CSF (Granulocyte Macrophage-Colony Stimulating Factor) / Apo A1 (Apoilpoprotein A1) / CD40 / Eotaxin / IL-3 (Interleukin-3) / EGF (Epidermal Growth Factor) / IL-1alpha (Interleukin-1alpha) / Endothelin-1 / IL-2 (Interleukin-2) / IFN-gamma (Interferon-gamma) / IL-4 (Interleukin-4) / IL-11 (Interleukin-11) / CD40 Ligand / IL-10 (Interleukin-10) / Fibrinogen: individual mice; for IL-17-(Interleukin-17): LDD 0.152; for GST-alpha (Glutathione S-Transferase alpha): LDD 0.42; for IL-1beta (Interleukin-1beta): LDD 0.447; for IL-12p70-(Interleukin-12p70): LDD 0.5712; for FGF-basic (Fibroblast Growth Factor-basic): LDD 0.577; for Haptoglobin: LDD 0.64; for IL-18 (Interleukin-18): LDD 0.674; for CRP (C Reactive Protein): LDD 0.83; for Factor VII: LDD 0.958; for FGF-9 (Fibroblast Growth Factor-9): LDD 0.9926; for GM-CSF (Granulocyte Macrophage-Colony Stimulating Factor): LDD 8.746; for Apo A1 (Apoilpoprotein A1): LDD 10.4; for CD40: LDD 12; for Eotaxin: LDD 12.25; for IL-3 (Interleukin-3): LDD 21.274; for EGF (Epidermal Growth Factor): LDD 39.1; for IL-1alpha (Interleukin-1alpha): LDD 44.92; for Endothelin-1: LDD 66.95; for IL-2 (Interleukin-2): LDD 67; for IFN-gamma (Interferon-gamma): LDD 67.82; for IL-4 (Interleukin-4): LDD 73.54; for IL-11 (Interleukin-11): LDD 87.38; for CD40 Ligand: LDD 92; for IL-10 (Interleukin-10): LDD 109.26; for Fibrinogen: LDD 170
Description: In AA#80, serum samples were collected on Day 27, Day 34, Day 41 and Day 55 via the submandibular vein. Approximately 200 μL of blood per mouse was collected in Microtainer® serum separator tubes. Serum was removed following centrifugation and stored at <−65° C. until analysis.
Selected serum samples were sent to Rules-Based Medicine (Austin, Tex.) for quantitative immunoassay multi-analyte profiling of serum samples, with the goal of identifying biomarkers that could be used to monitor disease progression and response to B7-H4-Ig treatment. Day 27, Day 34, and Day 41 sera from the three representative mice in the B7-H4-Ig group (tag #3332, 3334, and 3338) and three representative mice in the Synagis® group (tag #3324, 3329, and 3330) were analyzed for levels of 58 analytes using the RodentMAP v2.9 Testing Service.
Data from the Rules-Based Medicine analysis was analyzed using Microsoft Excel and GraphPad Prism software. T-tests were performed to compare the levels of each analyte in the B7-H4-Ig versus Synagis® treated samples. No correction was made for multiple comparisons. Additionally, correlation coefficients were calculated for each analyte versus disease score.

Human B7-H4-Ig: human B7-H4 extracellular domain fused to hinge, CH2 and CH3 regions of human immunoglobulin Cγ1 chain; representative SEQ ID NOs:114-137
MDC (Macrophage-Derived Chemokine) (Day 41, LDD 21.85): 1350 pg/mL and 1110 pg/mL and 1290 pg/mL | MCP-3 (Monocyte Chemoattractant Protein-3) (Day 41, LDD 31.36): 197 pg/mL and 115 pg/mL and 132 pg/mL | VEGF (Vescular Endotheial Cell Growth Factor) (Day 41, LDD 38.2): 125 pg/mL and 120 pg/mL and 155 pg/mL | IP-10 (Inducible Protein-10) (Day 41, LDD 40.28): 69.3 pg/mL and 47.6 pg/mL and 59 pg/mL | LIF (Leukemia Infabitory Factor) (Day 41, LDD 43.6): 1540 pg/mL and 1980 pg/mL | MCP-5 (Monocyte Chemoattractant Protein-5) (Day 41, LDD 46.38): 48.8 pg/mL and 35.7 pg/mL and 37.9 pg/mL | SCF (Stem Cell Factor) (Day 41, LDD 75.17): 175 pg/mL and 198 pg/mL and 210 pg/mL | Lymphotactin (Day 41, LDD 85.48): 187 pg/mL and 148 pg/mL | VWF (Von Willebrand Factor) (Day 41, LDD 98.6): 113 ng/mL and 111 ng/mL and 133 ng/mL | GCP-2 (Granulocyte Chemotactic Potein-2) (Day 27): 18 ng/mL and 18.5 ng/mL and 16.6 ng/mL | IL-17-(Interleukin-17) (Day 27): <low> (2×) and 0.00451 ng/ml | GST-alpha (Glutathione S-Transferase alpha) (Day 27): <low> | IL-1beta (Interleukin-1beta) (Day 27): 4.36 ng/ml (2×) and 1.98 ng/ml | IL-12p70-(Interleukin-12p70) (Day 27): 0.0532 ng/ml (2×) and <low> | FGF-basic (Fibroblast Growth Factor-basic) (Day 27): 18.8 ng/mL and 17.8 ng/mL and 16.8 ng/mL | Haptoglobin (Day 27): 161 µg/mL and 204 µg/mL and 123 µg/mL | IL-18 (Interleukin-18) (Day 27): 13.3 ng/mL and 14.1 ng/mL and 11.7 ng/mL | CRP (C Reactive Protein) (Day 27): 13.4 µg/mL and 8.16 µg/mL and 7.98 µg/mL | Factor VII (Day 27): 33 ng/mL and 29.1 ng/mL and 26.4 ng/mL | FGF-9 (Fibroblast Growth Factor-9) (Day 27): <low> | GM-CSF (Granulocyte Macrophage-Colony Stimulating Factor) (Day 27): <low> | Apo A1 (Apoilpoprotein A1) (Day 27): 57.3 µg/mL and 53.7 µg/mL and 42.7 µg/mL | CD40 (Day 27): 135 pg/ml (2×) and 151 pg/ml | Eotaxin (Day 27): 626 pg/mL and 613 pg/mL and 623 pg/mL | IL-3 (Interleukin-3) (Day 27): <low> | EGF (Epidermal Growth Factor) (Day 27): 18.4 pg/mL and 21.4 pg/mL and 20.4 pg/mL | IL-1alpha (Interleukin-1alpha) (Day 27): 468 pg/mL and 284 pg/mL and 381 pg/mL | Endothelin-1 (Day 27): 20.2 pg/ml (2×) and 17.1 pg/ml | IL-2 (Interleukin-2) (Day 27): <low> | IFN-gamma (Interferon-gamma) (Day 27): <low> (2×) and 7.14 pg/ml | IL-4 (Interleukin-4) (Day 27): <low> and 27.9 pg/ml and 17.7 pg/ml | IL-11 (Interleukin-11) (Day 27): <low> (2×) and 27 pg/ml | CD40 Ligand (Day 27): 1980 pg/mL and 1550 pg/mL and 1320 pg/mL | IL-10 (Interleukin-10) (Day 27): <low> (2×) and 94.2 pg/ml | Fibrinogen (Day 27): <low> | GCP-2 (Granulocyte Chemotactic Potein-2) (Day 34): 17.1 ng/mL and 18.1 ng/mL and 16.2 ng/mL | IL-17-(Interleukin-17) (Day 34): 0.0152 ng/mL and 0.00808 ng/mL and 0.00572 ng/mL | GST-alpha (Glutathione S-Transferase alpha) (Day 34): <low> and 4.16 ng/ml and 2.96 ng/ml | IL-1beta (Interleukin-1beta) (Day 34): 5.12 ng/mL and 3.58 ng/mL | IL-12p70-(Interleukin-12p70) (Day 34): 0.0725 ng/ml and <low> | FGF-basic (Fibroblast Growth Factor-basic) (Day 34): 17.8 ng/mL | Haptoglobin (Day 34): 281 µg/mL and 162 µg/mL and 140 µg/mL | IL-18 (Interleukin-18) (Day 34): 11.7 ng/mL and 10.9 ng/mL and 13.1 ng/mL | CRP (C Reactive Protein) (Day 34): 17.2 µg/mL and 8.79 µg/mL and 12.4 µg/mL | Factor VII (Day 34): 31.7 ng/mL and 33 ng/mL and 29.1 ng/mL | FGF-9 (Fibroblast Growth Factor-9) (Day 34): <low> | GM-CSF (Granulocyte Macrophage-Colony Stimulating Factor) (Day 34): <low> | Apo A1 (Apoilpoprotein A1) (Day 34): 37.8 µg/mL and 48.5 µg/mL and 54.1 µg/mL | CD40 (Day 34): 96.7 pg/mL and 147 pg/mL and 136 pg/mL | Eotaxin (Day 34): 630 pg/mL and 602 pg/mL and 700 pg/mL | IL-3 (Interleukin-3) (Day 34): <low> | EGF (Epidermal Growth Factor) (Day 34): 22.4 pg/mL and 14.3 pg/mL and 20.4 pg/mL | IL-1alpha (Interleukin-1alpha) (Day 34): 361 pg/mL and 447 pg/mL and 587 pg/mL | Endothelin-1 (Day 34): 22.2 pg/mL and 20.2 pg/mL | IL-2 (Interleukin-2) (Day 34): <low> | IFN-gamma (Interferon-gamma) (Day 34): 7.14 pg/mL and 3.58 pg/mL | IL-4 (Interleukin-4) (Day 34): 17.7 pg/ml and <low> | IL-11 (Interleukin-11) (Day 34): 17.1 pg/mL | CD40 Ligand (Day 34): 1370 pg/mL and 2030 pg/mL and 2180 pg/mL | IL-10 (Interleukin-10) (Day 34): 94.2 pg/ml and <low> | Fibrinogen (Day 34): 136 ug/ml and <low> | GCP-2 (Granulocyte Chemotactic Potein-2) (Day 41): 16.9 ng/mL and 16.3 ng/mL and 20.9 ng/mL | IL-17-(Interleukin-17) (Day 41): 0.00572 ng/ml (2×) and <low> | GST-alpha (Glutathione S-Transferase alpha) (Day 41): 1.01 ng/mL and 0.477 ng/mL and 1.64 ng/mL | IL-1beta (Interleukin-1beta) (Day 41): 4.36 ng/ml and 5.12 ng/ml (2×) | IL-12p70-(Interleukin-12p70) (Day 41): <low> (2×) and 0.0914 ng/ml | FGF-basic (Fibroblast Growth Factor-basic) (Day 41): 19.9 ng/mL and 17.8 ng/mL and 18.8 ng/mL | Haptoglobin (Day 41): 267 µg/mL and 270 µg/mL and 193 µg/mL | IL-18 (Interleukin-18) (Day 41): 13.3 ng/mL and 11.7 ng/mL and 11.5 ng/mL | CRP (C Reactive Protein) (Day 41): 17.1 µg/mL and 10.6 µg/mL and 12.1 µg/mL | Factor VII (Day 41): 36.9 ng/mL and 30.4 ng/mL and 27.7 ng/mL | FGF-9 (Fibroblast Growth Factor-9) (Day 41): <low> | GM-CSF (Granulocyte Macrophage-Colony Stimulating Factor) (Day 41): <low> | Apo A1 (Apoilpoprotein A1) (Day 41): 46.8 µg/mL and 49.5 µg/mL and 46 µg/mL | CD40 (Day 41): 108 pg/mL and 105 pg/mL and 140 pg/mL | Eotaxin (Day 41): 629 pg/mL and 493 pg/mL and 694 pg/mL | IL-3 (Interleukin-3) (Day 41): <low> | EGF (Epidermal Growth Factor) (Day 41): 28.4 pg/mL and 16.3 pg/mL and 18.4 pg/mL | IL-1alpha (Interleukin-1alpha) (Day 41): 488 pg/mL and 284 pg/mL and 1950 pg/mL | Endothelin-1 (Day 41): 21.2 pg/mL and 20.2 pg/mL and 16 pg/mL | IL-2 (Interleukin-2) (Day 41): <low> | IFN-gamma (Interferon-gamma) (Day 41): 3.58 pg/ml (2×) and 7.14 pg/ml | IL-4 (Interleukin-4) (Day 41): 35.7 pg/ml and 17.7 pg/ml (2×) | IL-11 (Interleukin-11) (Day 41): 17.1 pg/ml and <low> (2×) | CD40 Ligand (Day 41): 1680 pg/mL and 1630 pg/mL and 1830 pg/mL | IL-10 (Interleukin-10) (Day 41): <low> | Fibrinogen (Day 41): <low> (2×) and 118 ug/ml

Source: patent publication US9011853B2, “B7-H4 fusion proteins and methods of use thereof” (Amplimmune, Inc., priority 2009, dated 2015)
